This is an account of results in PMC5431807, “Structural Basis for Importin-α Binding of the Human Immunodeficiency Virus Tat” (Scientific Reports, 2017).

Entries after “also recorded” stand apart in the source; their conditions may differ.

Experiment [1] deals with T1, importin-α (Mus musculus, UniProt P52293). Kind of experiment: X-ray crystal structure of Tat:NLS/CPP importin-α complex (PDB 5SVZ).
Experiment [2] deals with T1, importin-α. Kind of experiment: Binding of importin-α to immobilised GST-Tat:NLS/CPP on glutathione column, SDS-PAGE. Also on record: 6-His; made in house; The pET30 vector and Studier autoinduction imply E. coli (own inference). The following applies: GST-Tat:NLS/CPP fusion immobilised on glutathione column, importin-α passed over.
Setting [3] is: overall binding, 2.0 Å structure.

Turning to “GRKKRRQRRRAPQN [Tat:NLS/CPP, entire cell penetrating region of HIV-1 Tat, residues 48–61, recombinantly expressed as a GST-fusion, tag cleaved by TEV for crystallisation]”, in experiment [1] (2.0 Å structure), the “binding site on importin-α” value is given as “binds to the major binding site of importin-α within ARM domains 2–4; also recorded: no NLS residues in the minor binding site”. In addition, the hydrogen bond distance is given as 2.77 Å in experiment [1] (Tat Arg49 O – importin-α Asn235 ND2, PDBSum); 2.81 Å in experiment [1] (Tat Arg52 NH1 – importin-α Arg106 O, PDBSum); 2.84 Å in experiment [1] (Tat Arg52 NH1 – importin-α Leu104 O, PDBSum); 3.02 Å in experiment [1] (Tat Arg52 NH2 – importin-α Arg106 O, PDBSum); 3.20 Å in experiment [1] (Tat Arg52 NH2 – importin-α Glu107 O, PDBSum); 2.89 Å in experiment [1] (Tat Arg53 N – importin-α Asn146 OD1, PDBSum). In addition, the hydrogen bond distance in experiment [1] (Tat Arg53 NH1 – importin-α Gln181 OE1, PDBSum) amounted to 2.49 Å; in experiment [1] (Tat Arg53 O – importin-α Asn146 ND2, PDBSum) it was 2.66 Å; in experiment [1] (Tat Arg53 O – importin-α Trp142 NE1, PDBSum) it was 3.24 Å; in experiment [1] (Tat Lys50 NZ – importin-α Gly150 O, PDBSum), 2.91 Å; in experiment [1] (Tat Lys50 NZ – importin-α Thr155 OG1, PDBSum), 2.80 Å; in experiment [1] (Tat Lys51 N – importin-α Asn188 OD1, PDBSum), 2.81 Å. Further, the hydrogen bond distance in experiment [1] (Tat Lys51 O – importin-α Asn188 ND2, PDBSum) is listed as 2.79 Å; in experiment [1] (Tat Lys51 O – importin-α Trp184 NE1, PDBSum), 3.02 Å. Moreover, in experiment [1] (Tat Lys50 NZ – importin-α Asp192 OD1, salt bridge interaction, PDBSum), the salt bridge distance was found to be 2.89 Å. Also, the buried surface area in experiment [1] (setting [3]) was found to be 717 Å^2. Besides, in experiment [1] (setting [3]), the “number of salt bridge interactions” value came out at 1 salt bridge. In experiment [2], the “binding to importin-α (column retention / complex formation)” value is “strong and direct interaction”.
